Data set [1] relates to Staphylococcus aureus. Kind of data set: Antibacterial activity against Staphylococcus aureus isolate 38 measured after 18 to 24 hrs by broth microdilution method. The format is functional. The following applies: time 18-24 hrs. On the technique in general: In broth dilution the organism is exposed to a series of concentrations in liquid medium.
Data set [2] concerns Escherichia coli. Kind of data set: Antibacterial activity against Escherichia coli K12 measured after 18 to 24 hrs by broth microdilution method. The data set is classed as functional. To be noted: time 18-24 hrs.
For data set [3], the system named is Pseudomonas aeruginosa. Kind of data set: Antibacterial activity against Pseudomonas aeruginosa PAO1 measured after 18 to 24 hrs by broth microdilution method. The data set is classed as functional. To be noted: time 18-24 hrs.
Data set [4] deals with T1, Transcriptional activator protein LasR (Pseudomonas aeruginosa (strain ATCC 15692 / PAO1 / 1C / PRS 101 / LMG12228)) (UniProt P25084).
T1 sequence (whole entry): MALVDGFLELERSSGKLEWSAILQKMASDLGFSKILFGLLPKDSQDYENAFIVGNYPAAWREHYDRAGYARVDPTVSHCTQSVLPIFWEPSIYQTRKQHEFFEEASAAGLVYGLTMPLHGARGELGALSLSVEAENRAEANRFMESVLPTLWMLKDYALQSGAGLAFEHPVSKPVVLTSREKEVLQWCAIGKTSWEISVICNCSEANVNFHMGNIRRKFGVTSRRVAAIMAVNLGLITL
Kind of data set: Inhibition of LasR quorum sensing system in Pseudomonas aeruginosa MH602 expressing PlasB::gfp assessed as reduction in GFP expression at 16 uM incubated for 15 hrs by fluorescence microplate reader analysis relative to control.

Data set [5] is described as follows: Inhibition of quorum sensing system in Pseudomonas aeruginosa PAO1 assessed as reduction in pyocyanin production at 64 uM measured after 48 hrs relative to control.
In data set [6] the test system is Pseudomonas aeruginosa. The data set can be described thus: Growth inhibition of Pseudomonas aeruginosa MH602 expressing PlasB::gfp at 16 uM relative to control. The data set is classed as functional. The following applies: read-out: GI.
Data set [7] in a line: Hemolytic activity in horse RBC measured after 4 hrs. The format is toxicity, cell-based, Equus caballus, Erythrocyte. The following applies: horse red blood cells.
Data set [8] in a line: Hemolytic activity in horse RBC assessed as hemolysis at 500 uM measured after 4 hrs relative to control. The following applies: horse red blood cells, read-out: Activity. The format is toxicity, cell-based, Equus caballus, Erythrocyte.

Converted amounts (≈) assume the structure as drawn. The source made the active and inactive calls. No cut-off for these calls is given here.

For orientation: MIC90 means an inhibitory concentration at the 90% level, which refers to growth in some studies and to a panel of isolates in others. As a reminder, the inhibition is how much of the control response was suppressed. As to `C=C1C(c2ccc(Cl)cc2)=CC(=O)N1CCC[n+]1ccn(C)c1`, the MIC90 was 250 µM in data set [1], more than 250 µM in data set [2] and more than 250 µM in data set [3]. Besides, the inhibition in data set [4] is 17.3%. Also, the inhibition result in data set [5] was “inactive”.

The HC50 is the concentration giving 50% haemolysis. High values mean less damage to red cells, low ones more damage to red cells. Consider `C=C1C(c2ccc(Cl)cc2)=CC(=O)N1CC[Se]C(=N)N`, for which the MIC90 in data set [1] is 64 µM (≈ 22.7 µg/mL); in data set [2], 125 µM (≈ 44.3 µg/mL); in data set [3], more than 250 µM. Further, in data set [4], the inhibition came to 72.8%. In addition, the inhibition of growth at 16 µM in data set [6] was determined as 15%. This molecule also yielded an HC50 at 4 h in data set [7] of more than 500 µM.

Consider `C=C1C(c2ccccc2)=CC(=O)N1CCCSC(=N)N`, for which the MIC90 in data set [1] was 125 µM (≈ 35.9 µg/mL); in data set [2] it was more than 250 µM; in data set [3] it was more than 250 µM. The inhibition in data set [4] was found to be 0%. Further, the inhibition of growth at 16 µM in data set [6] is more than 20%.

As for `C=C1C(c2ccccc2)=CC(=O)N1CCC[Se]C(=N)N`, the MIC90 in data set [1] is 250 µM (≈ 83.6 µg/mL); in data set [2] it was more than 250 µM; in data set [3], more than 250 µM. Moreover, in data set [4], the inhibition amounted to 51.5%.

For `C=C1C(c2ccc(F)cc2)=CC(=O)N1CCC[Se]C(=N)N`, the MIC90 is 250 µM (≈ 88.1 µg/mL) in data set [1], 250 µM (≈ 88.1 µg/mL) in data set [2] and more than 250 µM in data set [3]. In addition, in data set [4], the inhibition was 41.9%.

Regarding `C=C1C(c2ccc(Cl)cc2)=CC(=O)N1CCCSC(=N)N`, the values for the MIC90 in data set [1], in data set [2] and in data set [3] were 64 µM (≈ 20.6 µg/mL), 64 µM (≈ 20.6 µg/mL) and 250 µM (≈ 80.5 µg/mL), respectively. Also, the inhibition was determined as 53.1% in data set [4] and 70% in data set [5].

With `C=C1C(c2ccc(Br)cc2)=CC(=O)N1CCC[n+]1ccn(C)c1`, the MIC90 in data set [1] is 32 µM; in data set [2] it was 125 µM; in data set [3], more than 250 µM. The inhibition in data set [4] stood at 0%. Further, the inhibition result in data set [5] was “inactive”. Besides, the 50% haemolytic concentration (HC50) at 4 h in data set [7] was more than 31 µM.

Consider `C=C1C(c2ccc(Br)cc2)=CC(=O)N1CCC[Se]C(=N)N`, for which the MIC90 came out at 32 µM (≈ 13.2 µg/mL) in data set [1], 64 µM (≈ 26.4 µg/mL) in data set [2] and 250 µM (≈ 103 µg/mL) in data set [3]. Further, in data set [4], the inhibition stood at 53.2%. The HC50 at 4 h in data set [7] was more than 250 µM.

For the molecule `C=C1C(c2ccc(Br)cc2)=CC(=O)N1CC[Se]C(=N)N`, the results for the MIC90 in data set [1], in data set [2] and in data set [3] were 64 µM (≈ 25.5 µg/mL), 125 µM (≈ 49.9 µg/mL) and more than 250 µM, respectively. The values for the inhibition in data set [4] and in data set [5] were 69.4% and 70%, respectively.

On to `O=C1C=C(Br)/C(=C/Br)O1`, for which the inhibition in data set [4] worked out at 62.5%.

For `C=C1C(c2ccc(Cl)cc2)=CC(=O)N1CCSC(=N)N`, the MIC90 in data set [1] is 125 µM (≈ 38.5 µg/mL); in data set [2] it was more than 250 µM; in data set [3] it was more than 250 µM. Further, the inhibition in data set [4] is 40.8%.

For the molecule `C=C1C(c2ccc(Br)cc2)=CC(=O)N1CCCSC(=N)N`, the MIC90 in data set [1] turned out to be 64 µM (≈ 23.4 µg/mL); in data set [2] it was 64 µM (≈ 23.4 µg/mL); in data set [3] it was 250 µM (≈ 91.6 µg/mL). For the same molecule, the inhibition in data set [4] amounted to 48.3%. The inhibition of growth at 16 µM in data set [6] was less than 20%.

For `C=C1C(c2ccccc2)=CC(=O)N1CC[n+]1ccn(C)c1`, the MIC90 in data set [1] was 250 µM; in data set [2], 250 µM; in data set [3] it was more than 250 µM. Further, the inhibition in data set [4] came out at 14.4%. Moreover, the inhibition result in data set [5] is “inactive”.

`C=C1C(c2ccc(Br)cc2)=CC(=O)N1CCSC(=N)N`: the MIC90 in data set [1] turned out to be 16 µM (≈ 5.64 µg/mL); in data set [2], 32 µM (≈ 11.3 µg/mL); in data set [3], 125 µM (≈ 44 µg/mL). Besides, the inhibition in data set [4] turned out to be 57.1%. In data set [7], this molecule displayed a concentration for 50% haemolysis (HC50) at 4 h of more than 500 µM. Further, the hemolysis at 4 h, 500 µM in data set [8] was determined as 22%.

As for `C=C1C(c2ccc(Br)cc2)=CC(=O)N1CC[n+]1ccn(C)c1`, the MIC90 in data set [1] is 64 µM; in data set [2] it was 250 µM; in data set [3], more than 250 µM. Further, the inhibition in data set [4] worked out at 0%. Moreover, the inhibition entry in data set [5] was “inactive”.

In the case of `C=C1C(c2ccc(F)cc2)=CC(=O)N1CCCSC(=N)N`, the MIC90 in data set [1] amounted to 64 µM (≈ 19.5 µg/mL); in data set [2], 125 µM (≈ 38.2 µg/mL); in data set [3], 250 µM (≈ 76.3 µg/mL). In data set [4], the inhibition amounted to 59.9%. The HC50 at 4 h in data set [7] is more than 500 µM.

Take `C=C1C(c2ccc(Cl)cc2)=CC(=O)N1CC[n+]1ccn(C)c1`: the MIC90 is 250 µM in data set [1], more than 250 µM in data set [2] and more than 250 µM in data set [3]. In addition, the inhibition in data set [4] was 23.4%. In data set [5], the inhibition result is “inactive”.

For `C=C1C(c2ccccc2)=CC(=O)N1CCC[n+]1ccn(C)c1`, the MIC90 in data set [1], in data set [2] and in data set [3] was more than 250 µM in each case. Besides, in data set [4], the inhibition worked out at 17.6%. In data set [5], the inhibition result was “inactive”.

For the molecule `C=C1C(c2ccc(F)cc2)=CC(=O)N1CCSC(=N)N`, the MIC90 in data set [1] was 250 µM (≈ 72.8 µg/mL); in data set [2], 250 µM (≈ 72.8 µg/mL); in data set [3], more than 250 µM. Besides, the inhibition in data set [4] was 73.4%; in data set [5], 70%. The inhibition of growth at 16 µM in data set [6] came out at 16%.

`C=C1C(c2ccc(Cl)cc2)=CC(=O)N1CCC[Se]C(=N)N`: the results for the MIC90 in data set [1], in data set [2] and in data set [3] were 64 µM (≈ 23.6 µg/mL), 125 µM (≈ 46.1 µg/mL) and more than 250 µM, respectively. Further, the inhibition in data set [4] amounted to 56.2%. Further, in data set [7], the HC50 at 4 h was more than 500 µM.

In the case of `C=C1C(c2ccccc2)=CC(=O)N1CC[Se]C(=N)N`, the MIC90 in data set [1], in data set [2] and in data set [3] was more than 250 µM in each case. For the same molecule, the inhibition in data set [4] came out at 30.5%.

With `C=C1C(c2ccccc2)=CC(=O)N1CCSC(=N)N`, the MIC90 in data set [1], in data set [2] and in data set [3] was more than 250 µM each time. For the same molecule, the inhibition was 9.5% in data set [4] and more than 60% in data set [5]. The inhibition of growth at 16 µM in data set [6] was more than 20%.

On to `C=C1C(c2ccc(F)cc2)=CC(=O)N1CCC[n+]1ccn(C)c1`, for which the MIC90 in data set [1], in data set [2] and in data set [3] was more than 250 µM in each case. The inhibition in data set [4] amounted to 14.6%. In addition, the inhibition result in data set [5] is “inactive”.

With `C=C1C(c2ccc(F)cc2)=CC(=O)N1CC[Se]C(=N)N`, the MIC90 in data set [1] was 64 µM (≈ 21.6 µg/mL); in data set [2], 250 µM (≈ 84.6 µg/mL); in data set [3] it was more than 250 µM. In data set [4], the inhibition amounted to 64.5%.

As for `C=C1C(c2ccc(F)cc2)=CC(=O)N1CC[n+]1ccn(C)c1`, the MIC90 in data set [1], in data set [2] and in data set [3] was more than 250 µM throughout. The inhibition in data set [4] amounted to 31.4%. The inhibition entry in data set [5] is “inactive”.

Values taken from ChEMBL document CHEMBL6109110, “Novel cationic dihydropyrrol-2-one compounds as antimicrobial agents and quorum sensing inhibitors” (Bioorg Med Chem, 2025).
